Tests used:
[1] = test system: C2C12 cells; assay: Cell viability assay (CellTiter-Glo / automated cell number) in C2C12; format: cell-based; details: Mus musculus, read-out: Inhibition of cell viability IC50
Excerpt: (§1) Luminescent cell viability assay. For the detection of cell viability, the CellTiter-Glo® Luminescent Cell Viability Assay was used. This test is based on a luciferase reaction to measure the amount of ATP in cells. This correlates directly with the number of cells and their viability because cells lose the ability to synthesize ATP directly after e.g. loss of membrane integrity or a cytotoxic event. The protocol was adapted to 24 well plates and to the different culture conditions resulting in a standardized protocol which is described below. Cell lysis, inhibition of endogenous ATPases and detection of ATP was performed by adding the CellTiter-Glo® Reagent to the culture wells. Per well, 100 μl reagent were mixed with the same volume of proper Medium. Lysing of the cells took place by 10 min incubation at RT and moderate shaking. Three times 50 μl cell lysate was transferred into a white 96 well plate to eliminate stray light, and the bioluminescence was measured.
(§2) In a 96 well dish 10000 cells per well (100 μl) were seed and treated for 72 h. At the end of the treatment, cells were fixed with 4% paraformaldehyde in PBS for 15 minutes, permeabilized with 0.1% triton-X 100 in PBS for 15 minutes and stained with Hoechst 33342 (20 μg/ml in PBS; dilute from 20 mg/ml stock) directly to cells in 100 μl medium in PBS for 30 minutes at 37° C. Stained cells were imaged with a Cellomics ArrayScan VT I automated microscope. Images were analyzed with vHCS Scan Target Activation software v5.1.2 to identify apoptotic cells. Six fields per well of a 96 well plate we re-imaged at 10× magnification. First, cells were identified by their nuclei staining in channel 1 of Cellomics and their amount. Staining intensity was plotted and compared between NT controls and compound treated cells. Finally, data was obtained using vHCS View software v 5.1.2 and the numbers of cells present in the 96 well were identified as “Valid Object Count” whereas the percentage of infection was determined as “% selected”. IC50 values have been calculated accordingly.

[2] = biological target: T1, full length GRK5 (Homo sapiens, UniProt P34947); assay: GRK5 kinase activity assay, ADP Glo Kinase Assay technology (Promega); format: biochemical; details: group II; ADP Glo Kinase Assay (Table 9-B)
T1 construct: 6/2 fold concentrated full length GRK5 (Millipore, #14-714) in reaction buffer; purchased Millipore 14-714
Protocol: The maximal compound assay concentration was set to 100 μM, representing the compound assay concentration used in the primary screen.
Increasing concentrations of GRK5 are incubated together with 100 μM ATP in the absence and presence of 10 μM casein in a reaction buffer. Within this incubation non-phosphorylated casein is converted into phosphorylated casein and ATP is converted into ADP. Thereafter nonconverted ATP is digested into AMP by addition of the ADP-Glo™ Reagent. Subsequently the ADP that is produced by GRK5 activity is phosphorylated back to ATP by addition of Promega Kinase Detection Reagent. These ATP levels serve as measure for the GRK5 activity and are quantified by a luciferase/luciferin reaction.
For GRK5 kinase activity assay, the following protocol was used:
The reaction buffer used was composed of: 20 mM MES pH 6.0, 1 mM DTT, 10 mM MgCl2, 0.01% Tween20 and the reaction volume was 6 μL.
Firstly 4 μL 6/4 fold concentrated substrate and 6/4 fold concentrated ATP in 1 fold concentrated reaction buffer are added to each well of the assay plate. Subsequently 67 nL […] concentrated test compound in 100% DMSO are added to each well except to C− and C+ wells using pin tool. Then 67 nL 100% DMSO are pipetted to C− (no kinase, no compound) and C+ (no compound) wells using pin-tool and 2 μL reaction buffer are added to C− wells. […] After incubation for 120 min. at room temperature 6 μL ADP-Glo™ Reagent (ADP Glo™ Kinase Assay Kit: Promega, V9101) are added to each well to stop the kinase reaction and deplete the unconsumed ATP. After a second incubation for 40 min. at room temperature 12 μL of Kinase Detection Reagent are added to convert ADP to ATP and start luciferase/luciferin reaction for detection of ATP. […] Finally, after incubation for 40 min at room temperature the luminescence intensity was measured.
The activity of the compounds was classified according to IC50 for binding sites of Grk5 into the following ranges:
8800 Customer compounds were screened for their ability to inhibit the enzymatic activity of GRK5. Screening was performed using the ADP Glo™ Kinase Assay technology (Promega). The small molecular weight compounds were delivered at 10 mM stock concentration and were tested at a final assay concentration of 100 μM.
IC50 values were determined in triplicates at 12 concentrations with a dilution factor of three. Triplicates were measured on three different assay plates. The maximal compound assay concentration was set to 100 μM representing the compound assay concentration used in the primary screen. A larger maximal compound assay concentration could not be achieved since the maximal compound concentration on the compound plates was 10 mM (>1% DMSO concentration in the assay).

[3] = test system: 3T3-L1 cells; assay: Cell viability assay (CellTiter-Glo / automated cell number) in 3T3-L1; format: cell-based; details: Mus musculus, read-out: Inhibition of cell viability IC50
Excerpt: as §1, §2

[4] = test system: HepG2 cells; assay: Cell viability assay (CellTiter-Glo / automated cell number) in HepG2; format: cell-based; details: Homo sapiens, read-out: Inhibition of cell viability IC50
Excerpt: as §1, §2

[5] = test system: beta TC6 cells; assay: Cell viability assay (CellTiter-Glo / automated cell number) in beta TC6; format: cell-based; details: Mus musculus, read-out: Inhibition of cell viability IC50
Excerpt: as §1, §2

T1 sequence (P34947 whole entry): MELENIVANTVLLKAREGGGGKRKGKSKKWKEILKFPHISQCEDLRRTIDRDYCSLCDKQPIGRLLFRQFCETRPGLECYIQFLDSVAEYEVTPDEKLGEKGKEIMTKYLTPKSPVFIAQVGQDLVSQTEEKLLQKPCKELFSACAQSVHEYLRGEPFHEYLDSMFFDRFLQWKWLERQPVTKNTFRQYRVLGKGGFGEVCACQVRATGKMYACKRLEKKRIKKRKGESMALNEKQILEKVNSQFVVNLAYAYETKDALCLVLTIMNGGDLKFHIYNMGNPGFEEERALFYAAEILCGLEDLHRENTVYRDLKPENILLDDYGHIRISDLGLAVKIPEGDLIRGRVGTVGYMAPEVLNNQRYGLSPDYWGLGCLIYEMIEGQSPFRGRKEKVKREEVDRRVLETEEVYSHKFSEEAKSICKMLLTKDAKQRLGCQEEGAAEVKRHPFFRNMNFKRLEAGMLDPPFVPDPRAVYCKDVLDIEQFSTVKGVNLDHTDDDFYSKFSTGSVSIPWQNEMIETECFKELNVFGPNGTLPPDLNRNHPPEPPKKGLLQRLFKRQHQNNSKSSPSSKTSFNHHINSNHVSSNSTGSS

Compound	IC50 [1]	IC50 [2]	IC50 [3]	IC50 [4]	IC50 [5]
CC[C@@H](NC(=O)c1ccc2c(c1)/C(=C/c1[nH]c(C)c(C(=O)NCCN3CCCC3)c1C)C(=O)N2)c1ccccc1 [II.6, (3Z)-3-({3,5-dimethyl-4-[(2-pyrrolidin-1-ylethyl)carbamoyl]-1H-pyrrol-2-yl}methylene)-2-oxo-N-[(1R)-1-phenylpropyl]indoline-5-carboxamide]	1.49 µM	0.1 to 1 µM	1.7 µM	0.27 µM	0.42 µM
CC[C@@H](NC(=O)c1ccc2c(c1)/C(=C/c1[nH]c(C)c(C(=O)N3CCN(C)CC3)c1C)C(=O)N2)c1ccccc1 [II.7, (3Z)-3-({3,5-dimethyl-4-[(4-methylpiperazin-1-yl)carbonyl]-1H-pyrrol-2-yl}methylene)-2-oxo-N-[(1R)-1-phenylpropyl]indoline-5-carboxamide]	1.31 µM	2 to 10 µM	1.07 µM	0.69 µM	1.19 µM
CCC(NC(=O)c1ccc2c(c1)/C(=C/c1[nH]c(C)c(C(=O)NCCN3CCCC3)c1C)C(=O)N2)c1ccc(Cl)cc1 (stereo not shown) [II.13, (3Z)-N-[1-(4-chlorophenyl)propyl]-3-({3,5-dimethyl-4-[(2-pyrrolidin-1-ylethyl)carbamoyl]-1H-pyrrol-2-yl}methylene)-2-oxoindoline-5-carboxamide]	4.61 µM	0.1 to 1 µM	> 10 µM	1.59 µM	1.63 µM
Cc1[nH]c(/C=C2\C(=O)Nc3ccc(C(=O)N[C@H](C)c4ccccc4)cc32)c(C)c1C(=O)N1CCCCC1 [II.14, (3Z)-3-{[3,5-dimethyl-4-(piperidin-1-ylcarbonyl)-1H-pyrrol-2-yl]methylene}-2-oxo-N-[(1R)-1-phenylethyl]indoline-5-carboxamide]	1.42 µM	0.1 to 1 µM	0.75 µM	0.72 µM	1.19 µM
Cc1[nH]c(/C=C2\C(=O)Nc3ccc(C(=O)N[C@H](C)c4ccccc4)cc32)c(C)c1C(=O)N1CCN(C)CC1 [II.15, (3Z)-3-({3,5-dimethyl-4-[(4-methylpiperazin-1-yl)carbonyl]-1H-pyrrol-2-yl}methylene)-2-oxo-N-[(1R)-1-phenylethyl]indoline-5-carboxamide]	2.37 µM	1 to 2 µM	1.12 µM	0.54 µM	1.68 µM
COc1ccc([C@@H](C)NC(=O)c2ccc3c(c2)/C(=C/c2[nH]c(C)c(C(=O)N4CCN(C)CC4)c2C)C(=O)N3)cc1 [II.21, (3Z)-3-({3,5-dimethyl-4-[(4-methylpiperazin-1-yl)carbonyl]-1H-pyrrol-2-yl}methylene)-N-[(1R)-1-(4-methoxyphenyl)ethyl]-2-oxoindoline-5-carboxamide]	9.83 µM	2 to 10 µM	1.31 µM	1.61 µM	4.07 µM
CCN(CC)CCNC(=O)c1c(C)[nH]c(/C=C2\C(=O)Nc3ccc(C(=O)N[C@H](C)c4ccccc4)cc32)c1C [II.59, (3Z)-3-[(4-{[2-(diethylamino)ethyl]carbamoyl}-3,5-dimethyl-1H-pyrrol-2-yl)methylene]-2-oxo-N-[(1R)-1-phenylethyl]indoline-5-carboxamide]	1.11 µM	–	0.63 µM	0.37 µM	0.71 µM
CCN(CC)CCNC(=O)c1c(C)[nH]c(/C=C2\C(=O)Nc3ccc(C(=O)N[C@@H](C)c4ccccc4)cc32)c1C [II.60, (3Z)-3-[(4-{[2-(diethylamino)ethyl]carbamoyl}-3,5-dimethyl-1H-pyrrol-2-yl)methylene]-2-oxo-N-[(1S)-1-phenylethyl]indoline-5-carboxamide]	4.06 µM	–	2 µM	2.29 µM	2.21 µM
CC[C@@H](NC(=O)c1ccc2c(c1)/C(=C/c1[nH]c(C)c(C(=O)NCCN(CC)CC)c1C)C(=O)N2)c1ccccc1 [II.61, (3Z)-3-[(4-{[2-(diethylamino)ethyl]carbamoyl}-3,5-dimethyl-1H-pyrrol-2-yl)methylene]-2-oxo-N-[(1R)-1-phenylpropyl]indoline-5-carboxamide]	1.49 µM	< 0.1 µM	0.6 µM	0.33 µM	0.44 µM
CC[C@@H](NC(=O)c1ccc2c(c1)/C(=C/Nc1ccc(CN3CCCCC3)cc1)C(=O)N2)c1ccccc1 [II.69, (3Z)-2-oxo-N-[(1R)-1-phenylpropyl]-3-({[4-(piperidin-1-ylmethyl)phenyl]amino}methylene)-indoline-5-carboxamide]	5.63 µM	< 0.1 µM	> 10 µM	4.51 µM	> 10 µM
C[C@@H](NC(=O)c1ccc2c(c1)/C(=C/Nc1ccc(CN3CCCCC3)cc1)C(=O)N2)c1ccccc1 [II.78, (3Z)-2-oxo-N-[(1R)-1-phenylethyl]-3-({[4-(piperidin-1-ylmethyl)phenyl]amino}methylene)indoline-5-carboxamide]	> 10 µM	< 0.1 µM	> 10 µM	5.73 µM	> 10 µM
COc1cccc([C@@H](C)NC(=O)c2ccc3c(c2)/C(=C/Nc2ccc(CN4CCCCC4)cc2)C(=O)N3)c1 [II.79, (3Z)-N-[(1R)-1-(3-methoxyphenyl)ethyl]-2-oxo-3-({[4-(piperidin-1-ylmethyl)phenyl]amino}methylene)indoline-5-carboxamide]	> 10 µM	< 0.1 µM	> 10 µM	2.08 µM	2.05 µM
C[C@@H](NC(=O)c1ccc2c(c1)/C(=C/Nc1ccc(CN3CCCCC3)cc1)C(=O)N2)c1cccc(Cl)c1 [II.80, (3Z)-N-[(1R)-1-(3-chlorophenyl)ethyl]-2-oxo-3-({[4-(piperidin-1-ylmethyl)phenyl]amino}methylene)indoline-5-carboxamide]	> 10 µM	< 0.1 µM	> 10 µM	3.9 µM	0.47 µM
CCC(NC(=O)c1ccc2c(c1)/C(=C/c1[nH]c(C)c(CCC(=O)NCCN(CC)CC)c1C)C(=O)N2)c1cccc(Cl)c1 (stereo not shown) [II.135, (3Z)-3-{4-[2-(2-diethylamino-ethylcarbamoyl)-ethyl]-3,5-dimethyl-1H-pyrrol-2-ylmethyiene}-2-oxo-2,3-dihydro-1H-indole-5-carboxylic acid [1-(3-chloro-phenyl)-propyl]-amide]	> 10 µM	< 0.1 µM	1.35 µM	1.85 µM	1.55 µM
CCOC(=O)[C@H](C)NC(=O)c1c(C)[nH]c(/C=C2\C(=O)Nc3ccc(C(=O)O)cc32)c1C [II.136]	> 10 µM	0.1 to 1 µM	2.69 µM	> 10 µM	> 10 µM

Reference: patent publication US9458463B2, “Method for treatment of diabetes by a small molecule inhibitor for GRK5” (MAX-PLANCK-GESELLSCHAFT ZUR FÖRDERUNG DER WISSENSCHAFTEN …, priority 2010, dated 2016)
